Measured values: patent US10758549B2, “Compositions of obeticholic acid and methods of use” (Intercept Pharmaceuticals, Inc., priority 2015, dated 2020)

Tests used:
[1] = molecular target: T1, farnesoid X receptor (FXR) (Homo sapiens, UniProt Q96RI1); settings: in vitro / on FXR; cited from earlier work
T1 sequence (Q96RI1 1-486): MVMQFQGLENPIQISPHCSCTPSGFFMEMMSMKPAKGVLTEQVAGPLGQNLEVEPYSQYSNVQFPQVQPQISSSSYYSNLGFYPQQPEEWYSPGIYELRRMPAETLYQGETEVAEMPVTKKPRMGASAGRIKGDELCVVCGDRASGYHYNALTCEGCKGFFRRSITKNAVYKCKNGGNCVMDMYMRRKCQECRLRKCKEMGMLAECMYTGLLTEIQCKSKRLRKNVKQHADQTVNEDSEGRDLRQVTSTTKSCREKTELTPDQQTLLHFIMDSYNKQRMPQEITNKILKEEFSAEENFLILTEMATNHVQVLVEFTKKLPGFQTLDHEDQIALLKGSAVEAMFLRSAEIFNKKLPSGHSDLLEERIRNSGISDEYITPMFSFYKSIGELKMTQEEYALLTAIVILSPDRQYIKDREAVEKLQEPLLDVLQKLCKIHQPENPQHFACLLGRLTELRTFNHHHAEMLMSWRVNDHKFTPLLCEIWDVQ

[2] = Example 10: clinical pharmacology / pharmacokinetics of OCA; assay type: in vivo, human; settings: for systemic exposure versus dose: 5, 10, and 25 mg once daily for 14 days; for metabolite-to-parent ratio: after daily administration of obeticholic acid; for median time (Tmax) of peak plasma concentrations: glyco-OCA and tauro-OCA conjugates, multiple oral doses of OCA 10 mg once daily
Description: This example describes clinical pharmacology and dosing of obeticholic acid (OCA—including obeticholic acid compositions described herein). […] OCA can be supplied as an oral tablet containing obeticholic acid in a formulation as described herein.
Median Tmax for glyco-OCA and tauro-OCA is 10 hours.
Following an oral administration of 25 mg [^14C]-OCA, about 87% of the dose is excreted in feces through biliary secretion. Less than 3% of the dose is excreted in the urine with no detection of OCA.

[3] = normal hepatic function, Fixed; cited from earlier work
[4] = Physiologic pharmacokinetic model of OCA (population PK fit and simulations); set-up: species or system human; settings: normal hepatic function, model estimate
Description: Plasma levels of OCA and its conjugates were measured in healthy subjects and cirrhotic patients with varying degrees of hepatic impairment. A physiologic pharmacokinetic model for OCA was developed to quantitatively describe the absorption, distribution, metabolism, and excretion of OCA in patients with and without hepatic impairment. The model was based on a published multi-compartment PK model for CDCA, and consisted of systemic, hepatobiliary, and intestinal systems. The model was used to simulate the pathophysiological abnormalities caused by cirrhosis including decreased hepatic uptake, portal-systemic shunting, decreased liver volume, and differences in amino acid conjugation.
This examples describes development of a physiologic PK model to quantitatively describe the absorption, distribution, metabolism, and excretion of OCA. In addition, the model was used to define the effects of hepatic impairment to predict the systemic and liver exposure to OCA in subjects with various degrees of liver impairment relative to healthy subjects with normal liver function. The model was developed based on 3 studies in healthy volunteers and 2 studies in patients with varying degrees of hepatic impairment […].
Data from was used to develop the model in healthy subjects (n=160) and then adjust for hepatic impairment (n=32) using the data from the above Examples. After development, the model was validated with data sourced from healthy subjects and cirrhotic patients.
The data used in model development included subject identifiers, time of dosing and sample collection, plasma drug concentrations (OCA, glyco-OCA, and tauro-OCA), dose amount, disease status (e.g., Child-Pugh score), and meal consumption information. Study participants received standardized meals at specified times during inpatient observation. Gallbladder contraction was assumed to last 90 minutes after the start of a meal. Drug concentrations below the limit of quantification (BLQ) were imputed to half of the lower limit of quantification (LLOQ). Observed and BLQ concentrations of OCA, glyco-OCA, and tauro-OCA associated with samples drawn prior to the first dose were excluded from the analyses.
A number of structural modifications were made to the base CDCA model in order to adapt it for use with OCA. For simplification, a single space was used to represent the gut (small and large intestines). Since OCA is an exogenous molecule, it was assumed that there was no endogenous synthesis and an absorption compartment with a first-order transfer coefficient (Ka) was included to represent the administration and absorption kinetics of an oral OCA dose. Based on steric hindrance by the 6-ethyl group of OCA, no bacterial 7-alpha dehydroxylation biotransformation activity (i.e., CDCA to lithocholic acid) was included in the model. Compartment volumes in the model were fixed to physiological values from the base CDCA model. The OCA model used the physiological flow values for blood, bile and gastrointestinal transit from the original physiologic PK model for CDCA, with the exception of flows from bile duct to gallbladder and from bile duct to gut. The physiological values from the base model led to poor predictions and may not be applicable due to the simplification of the enteral system into a unified gut compartment. The biotransformation and transport rates in the model, being dependent on chemical entity structure, were estimated by fitting the model to the plasma concentration time profiles of OCA, glyco-OCA, and tauro-OCA.
The PK model was first developed using the OCA, glyco-OCA, and tauro-OCA plasma concentration time profiles from healthy volunteers with normal hepatic function. Model parameter estimates related to healthy physiology were then held constant while the PK model was further developed using OCA, glyco-OCA, and tauro-OCA plasma concentration time profiles from patients with hepatic impairment (Child-Pugh scores A, B, and C). […]

| metabolite-to-parent ratio [2] | median time (Tmax) of peak plasma concentrations [2] [h] | b37: Tauro-OCA rate of deconjugation to OCA [4] [h⁻¹] | t11: Tauro-OCA transport rate from sinusoidal space to liver [4] [h⁻¹] | t21: Tauro-OCA transport rate from liver to bile duct [4] [h⁻¹] | t35: Tauro-OCA rate of absorption from gut to portal space [4] [h⁻¹] | b38: Glyco-OCA rate of deconjugation to OCA [4] [h⁻¹] | t9: Glyco-OCA transport rate from sinusoidal space to liver [4] [h⁻¹] | t19: Glyco-OCA transport rate from liver to bile duct [4] [h⁻¹] | t33: Glyco-OCA rate of absorption from gut to portal space [4] [h⁻¹] | SMILES | pharmacological activity relative to OCA (parent drug) [1] | systemic exposure versus dose [2] | t12: Glyco-OCA and tauro-OCA transport rate from liver to sinusoidal space [3] [h⁻¹] |
| --- | --- | --- | --- | --- | --- | --- | --- | --- | --- | --- | --- | --- | --- |
| 12.3 | 10 | 0.0200 | 1615 | 9.28 | 1.62 |  |  |  |  | CC[C@H]1[C@@H](O)[C@@H]2[C@H](CC[C@]3(C)[C@@H]([C@H](C)CCC(=O)NCCS(=O)(=O)O)CC[C@@H]23)[C@@]2(C)CC[C@@H](O)C[C@@H]12 [tauro-OCA] | nearly equipotent | increase more than proportionally with dose | 1.62 |
| 13.8 | 10 |  |  |  |  | 0.0431 | 1210 | 7.44 | 0.904 | CC[C@H]1[C@@H](O)[C@@H]2[C@H](CC[C@]3(C)[C@@H]([C@H](C)CCC(=O)NCC(=O)O)CC[C@@H]23)[C@@]2(C)CC[C@@H](O)C[C@@H]12 [glyco-OCA] | nearly equipotent | increase more than proportionally with dose | 1.62 |
